For series [1] the following is noted: in humans; cited from earlier work.
For series [2], the system named is rats sedated with DEX. As to the kind of experiment: Recovery of consciousness (righting reflex) in rats sedated with DEX. Format: in vivo. The note with it: 8 rats, crossover; DEX 50 micrograms/kg IV over 10 min; 5 min later dextroamphetamine 3 mg/kg IV over 2 min; saline mean 92 minutes; p<0.01. The source says: A randomized, blinded, crossover design was used with 8 rats. […] This difference was statistically significant (p<0.01).

Series [3] deals with rats under propofol and sevoflurane anesthesia. The conditions noted are these: Kenny et al., PLoS ONE 2015; cited from earlier work.
For series [4], the system named is rat sedated with DEX. As to the kind of experiment: Quadrant crossings in the cage after dexmedetomidine sedation (single rat). Format: in vivo. As to the method:
The data provided is from a single rat that underwent 3 experiments, with 3-4 days of rest between each session. FIG. 5 is a schematic of the experimental Design.
The rat received an intravenous infusion of dexmedetomidine (DEX, 50 mcg/kg) over 10 minutes, followed by a 5-minute rest period to switch medications. […] Note that 7.4 mg/kg of LDX is enzymatically cleaved to slowly release a total of 2.2 mg/kg of d-AMPH.
The cage was divided into 4 quadrants, and the number of times the rat crossed from one quadrant to another was recorded. Each data point represents the number of quadrant crossings in the cage during the preceding 15 minutes. […] By adjusting the relative doses of d-AMPH and LDX, a combination of these two drugs provided continuous, long-lasting reversal of DEX sedation, without the adverse side effects of administering a larger dose of d-AMPH, e.g., hyperactivity and large increases in heart rate and blood pressure.

The subject of series [5] is rats sedated with DEX. As to the kind of experiment: LFP spectrogram and electromyogram analysis in rats sedated with DEX. The series is classed as in vivo. The conditions noted are these: infusion after DEX infusion; FIG. 3 bottom panel. An excerpt: Spectrograms were constructed from continuous LFP recordings from the prefrontal cortex of rats. In these figures, spectral power (dB) at a given frequency (Hz) is represented by color and plotted over time.

The test system of series [6] is rats anesthetized with ketamine. The experiment in a line: Recovery of consciousness after ketamine anesthesia in rats. Format: in vivo. The note with it: 8 rats, crossover; ketamine 50 mg/kg IV over 10 min; 5 min later dextroamphetamine 3 mg/kg IV over 2 min; saline mean 6.3 minutes; p<0.05. Here is the method: A randomized, blinded, crossover design was used with 8 rats. After intravenous administration of ketamine (50 mg/kg IV) over 10 minutes, all rats became unconscious. […] The difference was statistically significant (p<0.05).

With `Cc1cccc([C@H](C)c2cnc[nH]2)c1C` [DEX, Dexmedetomidine], the half-life entry in series [1] is listed as “approximately 2 hours”.
Regarding `C[C@H](N)Cc1ccccc1` [dextroamphetamine], the “mean time to regain consciousness” value in series [2] stood at 1.7 min. In series [3], the “reversal of general anesthesia” value is “reverse propofol and sevoflurane anesthesia”. The “reversal of DEX sedation (movement, quadrant crossings)” value in series [4] (DEX 50 mcg/kg IV over 10 min, d-AMPH 0.8 mg/kg alone, 2-minute IV infusion, FIG. 6) is “initially woke up and moved around”. In addition, the “time after which re-sedation occurred” value in series [4] (DEX 50 mcg/kg IV, d-AMPH 0.8 mg/kg IV alone) was found to be 30 min. Further, the “low-frequency LFP power, consciousness and EMG activity” value in series [5] was “rapidly decreased low-frequency LFP power, which coincided with return of consciousness (ROC) and increased EMG activity”. Further, in series [6], the “mean time to recovery of consciousness after ketamine” value is 11.6 min.

(Values after patent US12458609B2 (The General Hospital Corporation, priority 2018, dated 2025).)
